Measured values as given in patent US10591491B1, “Blood biomarker for early blood brain barrier disruption in ischemic stroke” (STC.UNM, priority 2011, dated 2020).
“Also recorded” adds a separate entry of the source.

What was measured:
[1] = test system: bEND3 cells; test: OGD-induced occludin degradation in bEND3 cells, Western blot of total cellular extracts; assay type: cell-based, Mouse
Protocol: (§1) Cell culture. Mouse brain microvascular endothelial cells bEND3 (American Type Culture Collection) were grown as a monolayer in DMEM with 15% fetal bovine serum (FBS), 100 U/ml penicillin and 100 μg/ml streptomycin at 37° C. in a humidified incubators with 5% CO2 and 95% room air. The cells were subcultured into 60 mm dishes coated with type I collagen (Nakamuta et al., 2005) and allowed to grow to confluence before exposure to OGD for 2 h. After OGD treatment, cell toxicity was measured by lactate dehydrogenase (LDH) assay using a CytoTox 96 Non-Radioactive Cytotoxicity Assay Kit (Promega). Besides endothelial cells, we also tested the effect of OGD on MMP-2/9 secretion in two mouse neural cell lines, C8-D1A (astrocyte) and […]. Both cell lines were purchased from American Type Culture Collection. C8-D1A cells and SH-SY5Y cells were cultured in DMEM or DMEM/F12 (1:1) (Sigma) containing 10% FBS, 100 U/ml penicillin and 100 μg/ml streptomycin, respectively. These cells were allowed to grow to 80-90% confluence before exposure to 2-h OGD treatment.
(§2) OGD treatment. To mimic acute ischemia-like conditions in vitro, bEND3 cells were exposed to OGD for 2 h as we described previously (Furuichi et al., 2005). […] The oxygen concentration was below 0.2% as monitored by an oxygen analyzer (Sable Systems). […]

[2] = test system: bEND3 cells; test: Immunostaining of occludin in OGD-treated bEND3 cells (confocal); assay type: cell-based, Mouse
Protocol: as §1, §2

[3] = test system: bEND3 cells; test: OGD-induced claudin-5 redistribution between subcellular fractions, Western blot; assay type: cell-based, Mouse; conditions: SB-3CT, 2 h OGD; Western blot of subcellular fractions
Protocol: OGD treatment. To mimic acute ischemia-like conditions in vitro, bEND3 cells were exposed to OGD for 2 h as we described previously (Furuichi et al., 2005). In brief, confluent bEND3 cells were subjected to an ischemic injury by transferring cultures to glucose free medium (DMEM without glucose) pre-equilibrated with 95% N2 and 5% CO2. Cells were then incubated in a humidified airtight chamber (Billups-Rothberg Inc.) equipped with an air lock and flushed with 95% N2 and 5% CO2 for 15 min. The chamber was then sealed and kept at 37° C. for another 105 min. The oxygen concentration was below 0.2% as monitored by an oxygen analyzer (Sable Systems). Control cultures were incubated with normal DMEM medium without FBS for 2 h at 37° C. in 95% air and 5% CO2. Immediately after OGD treatment, the conditioned media (CM) and cells were collected separately for further analyses.
Preparation of total cell lysate, subcellular fractions. To reveal a redistribution of MMP-2/9, Caveolin-1 (Cav-1) and TJ proteins in OGD-treated bEnd3 cells, three subcellular fractions including membranous, cytosolic, and cytoskeletal fractions were extracted using ProteoExtract Subcellular Proteome Extraction Kit (Calbiochem) according to manufacturer's instruction. […]

[4] = biological target: T1, occludin (UniProt Q61146)
T1 sequence: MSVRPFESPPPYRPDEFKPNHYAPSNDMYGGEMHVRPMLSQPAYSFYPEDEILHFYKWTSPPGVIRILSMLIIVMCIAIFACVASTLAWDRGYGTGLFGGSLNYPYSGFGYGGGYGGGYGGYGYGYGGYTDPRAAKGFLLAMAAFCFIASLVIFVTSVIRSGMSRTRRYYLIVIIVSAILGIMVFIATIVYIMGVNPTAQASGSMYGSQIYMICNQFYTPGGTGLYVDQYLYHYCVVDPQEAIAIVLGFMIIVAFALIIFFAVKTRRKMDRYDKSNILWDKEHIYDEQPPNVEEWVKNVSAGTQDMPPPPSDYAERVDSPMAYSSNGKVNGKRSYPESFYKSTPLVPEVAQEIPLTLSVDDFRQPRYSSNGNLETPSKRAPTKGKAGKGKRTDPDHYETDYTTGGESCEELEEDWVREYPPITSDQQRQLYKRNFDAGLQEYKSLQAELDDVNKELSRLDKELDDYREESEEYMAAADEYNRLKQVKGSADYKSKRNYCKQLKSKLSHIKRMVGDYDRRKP

[5] = tPA thrombolysis, cited from earlier work

Compound: O=S(=O)(CC1CS1)c1ccc(Oc2ccccc2)cc1 (centres unmarked) [SB-3CT]
- OGD-induced occludin degradation (occludin protein in total cellular extracts) ([1]; SB-3CT 10 μM, 2 h before and during 2 h OGD, Western blot, vs vehicle (DMSO) plus OGD): completely abolished OGD-induced occludin reduction; also recorded: completely inhibited OGD-induced occludin degradation
- occludin level in control (non-OGD) bEND3 cells ([1]; SB-3CT-treated control cells compared to vehicle-treated cells (DMSO)): slight increase (not statistically significant) in occludin level
- occludin immunostaining reduction in OGD-treated cells ([2]; SB-3CT pretreatment, 2 h OGD, confocal microscopy): completely inhibited occludin reduction in OGD-treated cells
- occludin immunostaining in control cells ([2]; SB-3CT-treated control cells vs vehicle-treated control cells): slight stronger immunostaining (brighter fluorescence) for occludin
- OGD-induced claudin-5 redistribution between subcellular fractions [3]: had no effect on its redistribution between subcellular fractions; also recorded: had no effect on OGD-induced claudin-5 redistribution

Compound: active MMP-9
- occludin degradation in bEND3 extracts [4]: active MMP-9-induced occludin degradation

Compound: tPA: tissue plasminogen activator, the only FDA-approved therapy for acute ischemic stroke
- mortality rate in stroke patients who have such bleeding ([5]; patients with symptomatic ICH): 50%
- increase in the incidence of symptomatic ICH ([5]; stroke patients): 10 fold
